Read-outs that look alike come from different tables or passages of the source. Marks after values point to notes of the source that are not given here. One block for each compound: values may come before it.
Experiments:
[1] = system: SA-129 (clinical isolate); test: MIC broth microdilution, SA-129; format: cell-based, Staphylococcus aureus
Procedure: (§1) The minimum inhibitory concentration (MIC) for each tested compound was determined by the broth microdilution method as recommended by the Clinical and Laboratory Standards Institute (CLSI). In a 96-well plate, eleven two-fold serial dilutions of each compound were made in a final volume of 100 μL Luria Broth. Each well was inoculated with ˜10^5 bacterial cells at the initial time of incubation, prepared from a fresh log phase culture (OD600 of 0.5 to 1.0 depending on bacterial strain). […] (MIC values were supported by spectrophotometric readings at OD600). DMSO served as our vehicle and negative control in each microdilution MIC assay. DMSO was serially diluted with a top concentration of 1% v/v.
(§2) Each well was inoculated with ˜10^5 bacterial cells at the initial time of incubation, prepared from a fresh log phase culture (OD600 of 0.5 to 1.0 depending on bacterial strain). […] The concentration range tested for each compound during this study was 0.10 to 100 μM. DMSO served as our vehicle and negative control in each microdilution MIC assay. DMSO was serially diluted with a top concentration of 1% v/v. All MIC values were obtained from a minimum of three independent experiments.

MRSA BAA-44 = test: MIC broth microdilution, MRSA BAA-44; format: cell-based, Staphylococcus aureus
Procedure: as §1, §2

[2] = system: methicillin-resistant Staphylococcus epidermidis (MRSE strain ATCC 35984); test: MIC broth microdilution, MRSE 35984; format: cell-based; conditions: for MIC: Staphylococcus epidermidis; for MIC S. epidermidis MRSE 35984: Table 1A; for MIC MRSE 35984: Table 4
In short: (§3)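 CLSI broth microdilution in Luria Broth: eleven two-fold dilutions (0.10–100 μM), ~10^5 log-phase cells per well, 16–18 h at 37 °C. MIC was the lowest concentration preventing growth, supported by OD600. DMSO up to 1% v/v was the vehicle; values come from at least three independent experiments.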

[3] = system: Pseudomonas aeruginosa (PAO1); test: MIC broth microdilution, PAO1; format: cell-based
In short: as §3

[4] = system: MRSA-1 (clinical isolate); test: MIC broth microdilution, MRSA-1; format: cell-based, Staphylococcus aureus
Procedure: as §1, §2

[5] = system: Acinetobacter baumannii (ATCC 1794); test: MIC broth microdilution, A. baumannii 1794; format: cell-based; conditions: for MIC: Acinetobacter baumannii, ATCC1794; for MIC A. baumannii 1794: Table 1A
In short: as §3

[6] = system: methicillin-resistant Staphylococcus aureus MRSA-2 (clinical isolate); test: MIC broth microdilution, MRSA-2; format: cell-based
In short: as §3

[7] = system: SA-147 (clinical isolate); test: MIC broth microdilution, SA-147; format: cell-based, Staphylococcus aureus
Procedure: as §1, §2

[8] = system: vancomycin-resistant Enterococcus faecium (VRE strain ATCC 700221); test: MIC broth microdilution, VRE 700221; format: cell-based; conditions: for MIC E. faecium VRE 700221: Table 1A; for MIC VRE 700221: Table 4
In short: as §3

[9] = system: SA-138 (clinical isolate); test: MIC broth microdilution, SA-138; format: cell-based, Staphylococcus aureus
Procedure: as §1, §2

[10] = system: Escherichia coli clinical isolate (UAEC-1); test: MIC broth microdilution, UAEC-1; format: cell-based; conditions: for MIC UAEC-1: Table 4
Procedure: (§4) The minimum inhibitory concentration (MIC) for each tested compound was determined by the broth microdilution method as recommended by the Clinical and Laboratory Standards Institute (CLSI). In a 96-well plate, eleven two-fold serial dilutions of each compound were made in a final volume of 100 μL Luria Broth. Each well was inoculated with ˜10^5 bacterial cells at the initial time of incubation, prepared from a fresh log phase culture (OD600 of 0.5 to 1.0 depending on bacterial strain). The MIC was defined as the lowest concentration of compound that prevented bacterial growth after incubating 16 to 18 hours at 37° C. (MIC values were supported by spectrophotometric readings at OD600). DMSO served as our vehicle and negative control in each microdilution MIC assay. DMSO was serially diluted with a top concentration of 1% v/v.
as §4, with “for each compound was” for “for each tested compound was”, “Standards Institute (CLSI).^6 In a” for “Standards Institute (CLSI). In a”, “concentration of test compound that” for “concentration of compound that”, “37° C. The concentration range tested for each compound during this study was 0.10 to 100 μM. DMSO served” for “37° C. (MIC values were supported by spectrophotometric readings at OD600). DMSO served”, “1% v/v. All MIC values were obtained from a minimum of three independent experiments.” for “1% v/v.”

[11] = system: human red blood cells (hRBC); test: Hemolysis of red blood cells; format: cell-based
In short: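 hRBCs (2% suspension) exposed to compounds at 0.2–200 μM (ten-point dose-response) for 1 h at 37 °C; after centrifugation, haemoglobin release read as supernatant OD at 405 nm. DMSO set as 0% and Triton X as 100% haemolysis; HC50 from dose-response curves, three independent experiments.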

MRSA BAA-1707 = test: MIC broth microdilution, MRSA BAA-1707; format: cell-based, Staphylococcus aureus
In short: (§5)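 CLSI broth microdilution in Luria Broth with eleven two-fold dilutions across 0.10 to 100 μM, inoculated with ~10^5 cells from log-phase culture. Values come from at least three independent experiments.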

[12] = system: SA-156 (clinical isolate); test: MIC broth microdilution, SA-156; format: cell-based, Staphylococcus aureus
Procedure: as §1, §2

[13] = system: methicillin-sensitive Staphylococcus aureus ATCC 29213; test: MIC broth microdilution, S. aureus 29213; format: cell-based
In short: as §5

MIC ([1]; Staphylococcus aureus, Table 3): 4.69 µM
MIC (MRSA BAA-44; Staphylococcus aureus, Table 3): 4.69 µM
MIC ([2]; Table 1, read-out: MIC MRSE 35984): 4.69 µM
MIC ([2]; Table 2, read-out: MRSE 35984 MIC): 4.69 µM
MIC S. epidermidis MRSE 35984 [2]: 4.69^a
MIC MRSE 35984 [2]: 4.69a micromolar
MIC ([3]; Pseudomonas aeruginosa, PAO1, Table 1): > 100 µM
MIC PAO1 ([3]; Table 1A): > 100 µM
MIC PAO1 ([3]; Table 4): >100 µM
MIC ([4]; Staphylococcus aureus, MRSA, Table 3): 6.25 µM
MIC ([5]; Table 1, read-out: MIC A. baumannii 1794): 37.5 µM
MIC ([5]; Table 4, read-out: MIC A. bau. 1794): 37.5 µM
MIC A. baumannii 1794 [5]: 37.5^a
MIC ([6]; Staphylococcus aureus, BAA-1707 / MRSA, MRSA-2 and MRSA BAA-1707, read-out: MIC against two MRSA strains): 2.35 to 4.69 µM
MIC ([6]; Staphylococcus aureus, MRSA, Table 1, read-out: MIC MRSA-2): 4.69 µM
MIC ([6]; Staphylococcus aureus, MRSA, Table 4, read-out: MIC MRSA-2): 4.69 µM
MIC ([6]; Staphylococcus aureus, MRSA, Table 3, read-out: MIC MRSA-2): 3.13 µM
MIC MRSA-2 ([6]; Table 1A): 4.69^a
MIC ([7]; Staphylococcus aureus, Table 3): 4.69 µM
MIC ([8]; Table 1, read-out: MIC VRE 700221): 3.13 µM
MIC E. faecium VRE 700221 [8]: 3.13 µM
MIC ([8]; Table 2, read-out: VRE 700221 MIC): 3.13 µM
MIC VRE 700221 [8]: 3.13 µM
MIC ([9]; Staphylococcus aureus, Table 3): 6.25 µM
MIC ([10]; Escherichia coli, Table 1): 18.8 µM
MIC UAEC-1 [10]: 18.8a micromolar
MIC (MRSA BAA-1707; Staphylococcus aureus, Table 1, read-out: MIC MRSA BAA-1707): 2.35 µM
MIC (MRSA BAA-1707; Staphylococcus aureus, Table 2, read-out: MRSA BAA-1707 MIC): 2.35 µM
MIC (MRSA BAA-1707; Staphylococcus aureus, Table 4, read-out: MIC MRSA 1707): 2.35 µM
MIC MRSA BAA-1707 (MRSA BAA-1707; Table 3): 2.35^a μM
MIC ([12]; Staphylococcus aureus, Table 3): 6.25 µM
MIC ([13]; Staphylococcus aureus, ATCC29213, Table 3): 4.69 µM
SMILES: CCCCCCCCCCCCCCCCn1cc[n+](Cc2ccccc2)c1C [NH125, 3-benzyl-1-hexadecyl-2-methyl-1H-imidazol-3-ium bromide, reference compound]
hemolytic activity [11]: potent hemolytic activities
HC50 ([11]; human, 1 h, pH 7.2): 35.6 µM

SMILES: CCCCCCCCCCCCCCCCn1cc[n+](CCO)c1C.[Br-] [Compound 11]
MIC ([1]; Table 1B): 1.56 µM
MIC ([1]; Table 3): 1.56 µM
MIC (MRSA BAA-44; Table 1B): 1.56 µM
MIC (MRSA BAA-44; Table 3): 1.56 µM
MIC S. epidermidis MRSE 35984 [2]: 0.59^a
MRSE 35984 MIC ([2]; Table 2A): 0.59^a μM
MIC MRSE 35984 [2]: 0.59a micromolar
MIC PAO1 ([3]; Table 1A): > 100 µM
MIC PAO1 ([3]; Table 4): >100 µM
MIC MRSA-1 ([4]; Table 1B): 1.17^a μM
MIC MRSA-1 ([4]; Table 3): 1.17^a μM
MIC A. baumannii 1794 ([5]; in µM): 6.25
MIC A. bau. 1794 ([5]; Table 4): 6.25 µM
MIC MRSA-2 ([6]; Table 1A): 1.56 µM
MIC ([6]; Table 1B, read-out: MIC MRSA-2): 0.78 µM
MRSA-2 MIC ([6]; Table 2A): 1.56 µM
MIC MRSA-2 ([6]; Table 3): 1.17^a μM
MIC MRSA-2 ([6]; Table 4): 1.17a micromolar
MIC SA-147 ([7]; Table 1B): 1.17^a μM
MIC SA-147 ([7]; Table 3): 1.17^a μM
MIC E. faecium VRE 700221 [8]: 1.56 µM
VRE MIC ([8]; Table 2A): 1.56 µM
MIC VRE 700221 [8]: 1.56 µM
MIC ([9]; Table 1B): 1.56 µM
MIC ([9]; Table 3): 1.56 µM
MIC UAEC-1 [10]: 12.5 µM
HC50 ([11]; Table 1A): 6.8 µM
RBC HC50 ([11]; Table 4, concentration required to lyse 50% of red blood cells): 6.8 µM
MIC (MRSA BAA-1707; Table 1B, read-out: MIC MRSA BAA-1707): 0.39 µM
MIC (MRSA BAA-1707; Table 2A, read-out: MRSA BAA-1707 MIC): 0.39 µM
MIC (MRSA BAA-1707; Table 3, read-out: MIC MRSA BAA-1707): 0.39 µM
MIC MRSA 1707 (MRSA BAA-1707; Table 4): 0.39 µM
MIC ([12]; Table 1B): 1.56 µM
MIC ([12]; Table 3): 1.56 µM
MIC S. aureus 29213 ([13]; Table 1B): 1.17^a μM
MIC S. aureus 29213 ([13]; Table 3): 1.17^a μM

Reference: patent publication US11419335B2, “N-arylated analogues and uses thereof” (University of Florida Research Foundation, Incorporated, priority 2016, dated 2022)
